In US6596712B2, “Treatment of carcinomas using squalamine in combination with other anti-cancer agents or modalities” (Genaera Corporation, priority 1996, dated 2003):

Assays:
LNCaP cells [1] = test: LNCaP cell growth in vitro ([3H]-thymidine incorporation); format: cell-based, human
Protocol: The anti-proliferative effect of squalamine was evaluated in tissue culture by both crystal violet staining and [^3H]-thymidine incorporation, on the LNCaP/C4-2 human prostate cancer progression model. Developed by applicants' laboratory, this lineage-derived cell line recapitulates the progression of human neoplastic prostate disease from an androgen-dependent and minimally metastatic condition (LNCaP cells) to an androgen-independent (defined as being able to proliferate in castrate hosts) and highly aggressive state (C4-2 subline).
In vitro experiments were also conducted with the LNCAP cell line in which cell proliferation as judged by [3H]-thymidine uptake was determined. LNCaP cells were maintained as previously described (cf. J. T. Hsieh et al., Cancer Research 53, 2852-2857 (1993)). Cells were exposed to 20 ng/mL vascular endothelial growth factor (VEGF), 20 μg/mL squalamine or a combination of VEGF and squalamine. […] As a consequence, the mechanism underlying the effectiveness of squalamine treatment of the LNCaP tumor in vivo may under certain conditions also involve direct inhibition of tumor cell growth and/or induction of tumor cell death.

[2] = system: human brain capillary endothelial cells; test: Growth factor stimulated growth of human brain capillary endothelial cells; format: cell-based
Text: Thus, as the tumor puts out a variety of different growth factors, squalamine has an inhibitory effect on several.

LNCaP cells [3] = test: LNCaP xenograft post-orchiectomy (Example 6); format: in vivo, athymic mice; conditions: 20 mg/kg/day for six to ten weeks from castration
Text: LNCaP cells admixed with Matrigelm were implanted subcutaneously in 52 athymic mice. Those that developed measurable tumors and sufficient elevations in serum prostate specific antigen (“PSA”) (measured using a standard commercially available kit such as from Abbott Diagnostics (St. Louis, Mo.)) underwent orchiectomy. Subsequent to castration, these animals were distributed among the four groups (1-4) outlined below: and an additional control cohort of mice which were castrated but never treated with squalamine.
In the majority of animals, PSA levels fell to zero at time of castration. By three weeks they began to rebound and continued to rise steadily until the animals succumbed or were sacrificed. In these same mice, tumor size tended to plateau at time of orchiectomy, before beginning to increase in size correspondingly with PSA rebound. The serum PSA curve and tumor volume measurements from two members of this last control cohort are illustrated in FIG. 15a and b, respectively.
Ten mice began treatment with squalamine concomitant with the fall in PSA after castration (Group 1). Of these, three never experienced a post-orchiectomy PSA nadir, and one experienced an early death, of unknown etiology. Six animals, however, were treated with squalamine (at 20 mg/kg/day) for a range of six to ten weeks. […]

[4] = system: transfected PS 120 fibroblast cells; test: LDH leakage from transfected cells; format: cell-based; conditions: during NHE inhibiting effect
Protocol: In the transfected cells used in this test, it took at least 30 minutes before the NHE3 inhibition effect induced by squalamine was observed.

[5] = Pharmacokinetic study, half-life; conditions: in vivo
Protocol: A pharmacokinetic study of squalamine was performed to ascertain the residence time of squalamine in the body. FIGS. 6a to 6c illustrate the test results where squalamine was administered subcutaneously (50 mg/kg, FIG. 6a), intraperitoneally (dose 240 μg; 10 mg/kg, FIG. 6b), and intravenously (10 mg/kg, FIG. 6c).

rabbit NHE1 = biological target: T1, rabbit NHE1 (Oryctolagus cuniculus, UniProt P23791); test: NHE activity, rabbit NHE1; format: cell-based; conditions: similar tests
T1 construct: expressed in transfected cells
T1 sequence (P23791 whole entry): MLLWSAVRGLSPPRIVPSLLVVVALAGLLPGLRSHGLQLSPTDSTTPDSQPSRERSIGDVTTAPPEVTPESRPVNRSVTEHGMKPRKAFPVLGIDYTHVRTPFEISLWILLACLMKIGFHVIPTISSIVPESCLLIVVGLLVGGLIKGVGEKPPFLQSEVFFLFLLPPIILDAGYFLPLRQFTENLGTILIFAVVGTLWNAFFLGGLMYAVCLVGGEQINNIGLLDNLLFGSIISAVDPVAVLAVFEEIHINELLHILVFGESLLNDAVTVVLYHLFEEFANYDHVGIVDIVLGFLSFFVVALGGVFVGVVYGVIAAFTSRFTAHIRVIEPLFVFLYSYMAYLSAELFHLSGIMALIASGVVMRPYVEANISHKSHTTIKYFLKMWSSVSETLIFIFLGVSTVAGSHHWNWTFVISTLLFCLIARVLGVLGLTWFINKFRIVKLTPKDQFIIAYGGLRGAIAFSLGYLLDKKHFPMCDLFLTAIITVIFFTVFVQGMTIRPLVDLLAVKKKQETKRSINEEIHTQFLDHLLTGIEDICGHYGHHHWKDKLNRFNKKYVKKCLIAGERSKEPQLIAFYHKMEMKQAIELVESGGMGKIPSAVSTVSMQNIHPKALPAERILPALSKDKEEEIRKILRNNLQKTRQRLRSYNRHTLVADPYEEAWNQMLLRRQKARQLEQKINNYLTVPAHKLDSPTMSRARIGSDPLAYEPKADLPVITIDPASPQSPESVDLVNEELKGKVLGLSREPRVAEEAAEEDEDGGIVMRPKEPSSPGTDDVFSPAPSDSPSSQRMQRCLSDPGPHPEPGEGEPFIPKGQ

[6] = Tissue distribution after i.v. administration; format: in vivo, mouse; conditions: two hours after i.v. administration
Text: In addition to these squalamine half-life tests, applicants have tested to ascertain the distribution of squalamine in a mouse after intravenous administration. FIG. 7 illustrates the distribution of squalamine in mouse tissue two hours after i.v. administration. […] The test results shown in FIG. 7 indicate good squalamine distribution. […] In treating brain tumors, it is believed that the squalamine acts on the endothelial cells in the brain, and in this way, it need not cross the brain/blood barrier

[7] = system: Calu-6 human lung adenocarcinoma line; test: Nude mouse xenograft model of lung cancer with cisplatin, Calu-6; format: in vivo; conditions: started on day 4 or 5, daily i.p.
Text: Studies in a nude mouse xenograft model of lung cancer have been carried out using several human lung cancer lines which differ in their growth rate. […] The experimental lung cancer model design involves subcutaneous injection of 5×10^6 tumor cells followed by a single injection of the chemotherapeutic drug on day 3 or 4. […] Groups of mice receiving squalamine alone started receiving the aminosterol on the same day as aminosterol treatment in the combination chemotherapy groups. Tumor volumes were then determined at termination of the experiment and compared.

rabbit corneas = test: Inflammation in rabbit cornea without angiogenic stimulus; format: in vivo; conditions: pellets with 2%, 10% and 20% squalamine by weight
Protocol: In the rabbit corneal micropocket assay test, if the rabbit cornea becomes inflamed, this inflammation can lead to the formation of new blood vessels in the cornea. Such inflammation would skew the test results. Therefore, tests were conducted to determine whether squalamine, in and of itself, was responsible for any inflammatory response in the cornea. Several non-bioresorbable ethylene/vinyl acetate copolymer pellets were loaded with different concentrations of squalamine, namely, 2%, 10%, and 20% squalamine, by weight.

NHE1 = NHE1 (Homo sapiens, UniProt P19634); test: NHE activity in PS 120 fibroblasts transfected with human NHE1; format: cell-based; parameters: expressed in transfected cells; host or cells: PS 120 NHE-deficient fibroblasts; conditions: 7 μg/ml squalamine; acid loaded cells
NHE1, sequence (P19634 whole entry): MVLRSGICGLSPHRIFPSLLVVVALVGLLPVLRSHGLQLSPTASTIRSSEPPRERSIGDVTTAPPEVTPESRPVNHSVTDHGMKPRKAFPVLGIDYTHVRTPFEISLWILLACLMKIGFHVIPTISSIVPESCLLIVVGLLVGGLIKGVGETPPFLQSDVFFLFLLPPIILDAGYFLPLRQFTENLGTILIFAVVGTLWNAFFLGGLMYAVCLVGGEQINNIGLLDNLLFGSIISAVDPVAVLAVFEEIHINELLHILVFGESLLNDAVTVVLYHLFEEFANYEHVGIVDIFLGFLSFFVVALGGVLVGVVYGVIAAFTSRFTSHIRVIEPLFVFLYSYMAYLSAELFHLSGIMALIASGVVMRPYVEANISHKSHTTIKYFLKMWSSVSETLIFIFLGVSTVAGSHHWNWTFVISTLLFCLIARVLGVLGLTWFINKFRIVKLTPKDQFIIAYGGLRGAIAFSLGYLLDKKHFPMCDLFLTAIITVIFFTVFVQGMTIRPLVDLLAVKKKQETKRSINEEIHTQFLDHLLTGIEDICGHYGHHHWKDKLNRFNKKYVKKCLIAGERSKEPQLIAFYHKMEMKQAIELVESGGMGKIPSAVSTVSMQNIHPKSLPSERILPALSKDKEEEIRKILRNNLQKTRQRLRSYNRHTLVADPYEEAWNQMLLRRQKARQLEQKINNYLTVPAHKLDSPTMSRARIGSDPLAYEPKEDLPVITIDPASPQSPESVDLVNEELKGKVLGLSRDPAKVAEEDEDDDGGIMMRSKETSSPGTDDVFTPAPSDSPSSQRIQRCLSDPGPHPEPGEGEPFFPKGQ
Protocol: The following describes the test used to determine that squalamine inhibits NHE3, but not NHE1 or NHE2. NHE deficient fibroblast cells (PS 120) transfected with an individual human NHE gene were loaded with a pH sensitive dye 2′7′-bis(2-carboxyethyl)-5,6-carboxyfluorescein (BCECF). NHE activity was measured by spectrofluorometric methods using this dye and by amiloride sensitive isotopic ^22Na^+cellular uptake. The cells were acidified by exposure to ammonium chloride in the absence of sodium to eliminate sodium and deactivate the proton pumps. The ammonium chloride was washed out by exposing the cells to tetramethyl ammonium chloride in bicarbonate free medium. […] Sodium then was added back at various concentrations (see the abscissa of FIGS. 5a and 5b) to drive the antiporters (human NHE3 in FIG. 5a and human NHE1 in FIG. 5b). The antiporters were driven at different rates, as evidenced by the cellular pH change rate, depending on the amount of sodium added.

SMILES: CC(C)[C@@H](CC[C@@H](C)[C@H]1CC[C@H]2[C@@H]3[C@H](O)C[C@H]4C[C@@H](NCCCNCCCCN)CC[C@]4(C)[C@H]3CC[C@]12C)OS(=O)(=O)O [Squalamine, squalamine]
- Percent of Control [3H]-Thymidine Uptake (LNCaP cells [1]; 20 ng/mL VEGF and/or 20 μg/mL squalamine, 24 hours, media containing serum): 75%
- effect on cell growth alone (LNCaP cells [1]; media containing serum, 20 ng/mL VEGF or 20 μg/mL squalamine): minimal effects on cell growth
- growth of LNCaP cells, squalamine by itself (LNCaP cells [1]; no exogenous VEGF): nominal effect
- LNCaP proliferation (LNCaP cells [1]; with addition of exogenous VEGF): inhibited
- growth stimulation induced by b-FGF, PDGFbb, scatter factor, conditioned tumor media, human brain cyst fluid [2]: interfere with growth stimulation
- tumor masses (LNCaP cells [3]): tended to diminish and, eventually, disappear
- LDH leakage from the cell [4]: absence of lactase dehydrogenase (LDH) leakage
- half-life ([5]; ip, intraperitoneally, dose 240 μg, 10 mg/kg): 2.87 h
- half-life ([5]; iv, intravenously, 10 mg/kg): 0.583 h
- half-life ([5]; sc, subcutaneously, 50 mg/kg): 5.6 h
- effect on rabbit NHE1 (rabbit NHE1): not affected
- distribution in mouse tissue [6]: most of the squalamine concentrating in the liver and the small intestine
- squalamine in brain tissue [6]: not much squalamine is present in brain tissue
- tumor growth, monotherapy [7]: minimal effects on tumor growth
- inflammation in the cornea (rabbit corneas): did not induce inflammation
- effect on human NHE1 antiporter (pH change rate) (NHE1): no effective difference in the pH change rate
